# Measured values: patent publication US20210206760A1, “PHENYL-SUBSTITUTED DIHYDRONAPHTHYRIDINE COMPOUND AND USE THEREOF” (SUNSHINE LAKE PHARMA CO., LTD., priority 2018, published 2021)
# Molecular target: T1, mineralocorticoid receptor (MR) (Homo sapiens, UniProt P08235)
# T1 construct: expressed in transfected cells; host or cells: HEK293 (human embryonic kidney cells)
# T1 sequence (P08235 726-964 limits assumed): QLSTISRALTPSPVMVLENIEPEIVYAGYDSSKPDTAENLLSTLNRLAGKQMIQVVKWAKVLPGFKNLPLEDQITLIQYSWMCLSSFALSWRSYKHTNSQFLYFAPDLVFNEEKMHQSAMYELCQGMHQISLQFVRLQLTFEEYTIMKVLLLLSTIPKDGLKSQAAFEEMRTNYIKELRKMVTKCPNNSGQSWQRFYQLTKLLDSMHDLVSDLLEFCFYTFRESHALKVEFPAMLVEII
# Assay: Activity test in vitro: Gal4 DBD-MR LBD dual luciferase reporter assay in HEK293 cells
# Type: cell-based
# Conditions: HEK293 cells transfected with Gal4 DBD-MR LBD and firefly luciferase reporter; agonist aldosterone at EC80; 18 hours incubation; Renilla-corrected
# Source text: Example a Activity Test In Vitro
# Utilizing the characteristics of luciferase binding to the substrate to produce a chemiluminescence reaction, the fused plasmid of the Gal4 DNA binding domain (DBD) containing the ligand binding domain (LBD) of mineralocorticoid receptor (MR) and the firefly luciferase reporter gene plasmid controlled by Gal4 UAS (upstream activation sequences) were transfected into human embryonic kidney cells (HEK293). The changes in mineralocorticoid receptor activity between before and after stimulation or the influence of different stimuli on mineralocorticoid receptor activity was judged by the level of firefly luciferase activity. At the same time, in order to reduce the impact of internal change factors on the accuracy of the experiment, the plasmid with Renilla luciferase gene was used as a control plasmid to transfect cells to provide an internal control for transcription activity, so that the test results were not interfered by changes in experimental conditions.
# 1) HEK293 cells were collected after trypsinization and the cell density was adjusted to 500,000 cells/mL;
# 2) FuGENE HD transfection reagent was added into the cell suspension;
# 3) The above cell suspension was seeded into a 96-well cell culture plate at a density of 100 μL/well, and incubated for 24 hours at 37° C. in 5% CO2;
# 4) A series of concentrations of the test compound solution and the EC80 concentration of agonist aldosterone were added into each well and incubated for 18 hours;
# 5) Firefly and Renilla luciferase signals were detected through Promega dual luciferase reporter assay system.
# 1) After obtaining the firefly luciferase signal (F) and the Renilla luciferase signal (R), using the Renilla luciferase signal for correction, i.e., the F/R value was used to calculate the subsequent inhibition rate;
# 2)% inhibition rate=(Max−X)/(Max−Min)×100%, where Max is the F/R value of the positive control well, Min is the F/R value of the negative control well, and X is the F/R value of test compound well of different concentrations;
# 3) IC50 calculation was performed by GraphPrism 5.0 mapping software.
row,Structure (SMILES),IC50
1,"COc1cc(C#N)ccc1C1C(C(N)=O)=C(C)Nc2c(C)cnc(OCC3CC3)c21 (centres unmarked) [Example 1, 4-(4-Cyano-2-methoxyphenyl)-5-(cyclopropylmethoxy)-2,8-dimethyl-1,4-dihydro-1,6-naphthyridine-3-carboxamide]",19.4 nM
2,"COc1cc(C#N)ccc1C1C(C(N)=O)=C(C)Nc2c(C)cnc(OCC3CCCC3)c21 (centres unmarked) [Example 3, 4-(4-Cyano-2-methoxyphenyl)-5-(cyclopentylmethoxy)-2,8-dimethyl-1,4-dihydro-1,6-naphthyridine-3-carboxamide]",28.7 nM
3,"COc1cc(C#N)ccc1C1C(C(N)=O)=C(C)Nc2c(C)cnc(OCC3CCC3)c21 (centres unmarked) [Example 5, 4-(4-cyano-2-methoxyphenyl)-5-(cyclobutylmethoxy)-2,8-dimethyl-1,4-dihydro-1,6-naphthyridine-3-carboxamide]",17.8 nM

# The next lines start with the values.
row,IC50,Structure (SMILES)
1,3.44 nM,"COc1cc(C#N)ccc1C1C(C(N)=O)=C(C)Nc2c(C)cnc(OC3CCC3)c21 (centres unmarked) [Example 7, 4-(4-Cyano-2-methoxyphenyl)-5-(cyclobutyloxy)-2,8-dimethyl-1,4-dihydro-1,6-naphthyridine-3-carboxamide]"
2,7.74 nM,"COc1cc(C#N)ccc1C1C(C(N)=O)=C(C)Nc2c(C)cnc(OC3CCCC3)c21 (centres unmarked) [Example 8, 4-(4-Cyano-2-methoxyphenyl)-5-(cyclopentyloxy)-2,8-dimethyl-1,4-dihydro-1,6-naphthyridine-3-carboxamide]"
